From ChEMBL document CHEMBL5053556, “Design, Synthesis, and Biological Evaluation of a Novel Series of Teriflunomide Derivatives as Potent Human Dihydroorotate Dehydrogenase Inhibitors for Malignancy Treatment” (J Med Chem, 2021)
In brackets after ≈: the same amount, converted by molar mass.

What was measured:
Mus musculus [1] = assay: Toxicity in NOD-SCID mouse xenografted with human Raji cells assessed as body weight loss at 1.5 mg/kg, po administered for 25 days; assay type: organism-based; conditions: in vivo, 600 h, time 25 day
Raji [2] = assay: animal or person; conditions: Mus musculus, po, 600 h, read-out: TGI
Description: Antitumor activity against human Raji cells xenografted in NOD-SCID mouse assessed as tumor growth inhibition at 1.5 mg/kg, po administered for 25 days

L02 = assay: cells; assay type: ADME, cell-based; conditions: Homo sapiens, L02, 96 h
Description: Cytotoxicity against human L02 cells assessed as cell growth inhibition incubated for 96 hrs by MTT assay

Raji [3] = assay: Antiproliferative activity against human Raji cells assessed as cell growth inhibition incubated for 96 hrs by MTT assay; assay type: functional, cell-based
THP-1 = assay: Antiproliferative activity against human THP-1 cells assessed as cell growth inhibition incubated for 96 hrs by MTT assay; assay type: functional, cell-based; conditions: THP-1, 96 h
[4] = Acute toxicity in BALB/c mouse assessed effect on body weight at 400 mg/kg, po; assay type: organism-based; conditions: in vivo
SUD4 = assay: Antiproliferative activity against human SU-DHL-4 cells assessed as cell growth inhibition incubated for 96 hrs by MTT assay; assay type: functional, cell-based; conditions: SU-DHL-4, 96 h
[5] = Clearance in Sprague-Dawley rat at 5 mg/kg, iv measured after 48 hrs by LC-MS analysis; assay type: ADME, organism-based; conditions: Sprague-Dawley, in vivo
[6] = Plasma protein binding in rat at 0.1 uM incubated for 5 hrs by LC-MS analysis; assay type: ADME, cell-free; conditions: read-out: PPB (converted)
[7] = Clearance in Sprague-Dawley rat at 15 mg/kg, po measured after 48 hrs by LC-MS analysis; assay type: ADME, organism-based; conditions: in vivo
[8] = Half life in Sprague-Dawley rat at 5 mg/kg, iv measured after 48 hrs by LC-MS analysis; assay type: ADME, organism-based; conditions: in vivo
[9] = Acute toxicity in BALB/c mouse assessed as effect on spleen at 400 mg/kg, po measured on day 14 by H and E staining based assay; assay type: organism-based; conditions: in vivo, 336 h, time 14 day
[10] = Acute toxicity in BALB/c mouse assessed as effect on lung at 400 mg/kg, po measured on day 14 by H and E staining based assay; assay type: organism-based; conditions: in vivo, 336 h, time 14 day
[11] = Acute toxicity in BALB/c mouse assessed as effect on liver at 400 mg/kg, po measured on day 14 by H and E staining based assay; assay type: organism-based; conditions: in vivo, 336 h, time 14 day
[12] = Acute toxicity in BALB/c mouse assessed as effect on heart at 400 mg/kg, po measured on day 14 by H and E staining based assay; assay type: organism-based; conditions: in vivo, 336 h, time 14 day
HL-60 = assay: Antiproliferative activity against human HL-60 cells assessed as cell growth inhibition incubated for 96 hrs by MTT assay; assay type: functional, cell-based; conditions: HL-60, 96 h
[13] = Plasma protein binding in rat at 10 uM incubated for 5 hrs by LC-MS analysis; assay type: ADME, cell-free; conditions: read-out: PPB (converted)
[14] = Acute toxicity in BALB/c mouse assessed effect on feeding at 400 mg/kg, po; assay type: organism-based; conditions: in vivo
in vitro [15] = conditions: human, Caco-2
Description: Apparent permeability across apical to basolateral side in human Caco-2 cells incubated for 90 mins by LC-MS analysis

[16] = target: T1, Dihydroorotate dehydrogenase (quinone), mitochondrial (Homo sapiens, UniProt Q02127); conditions: dose 100.0 nM, time 30.0 min
T1 sequence (Q02127 whole entry): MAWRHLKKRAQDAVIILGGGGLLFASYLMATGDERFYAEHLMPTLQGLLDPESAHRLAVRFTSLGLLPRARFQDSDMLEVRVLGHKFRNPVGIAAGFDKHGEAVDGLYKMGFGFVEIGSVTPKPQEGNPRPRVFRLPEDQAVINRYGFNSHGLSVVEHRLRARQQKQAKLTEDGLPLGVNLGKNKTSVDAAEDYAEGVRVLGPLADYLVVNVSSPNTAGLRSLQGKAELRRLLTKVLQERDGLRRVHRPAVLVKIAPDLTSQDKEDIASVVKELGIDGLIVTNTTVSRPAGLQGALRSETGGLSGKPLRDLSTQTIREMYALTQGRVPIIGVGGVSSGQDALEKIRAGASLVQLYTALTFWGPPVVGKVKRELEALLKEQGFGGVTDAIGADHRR

[17] = Oral bioavailability in Sprague-Dawley rat at 15 mg/kg measured after 48 hrs by LC-MS analysis; assay type: ADME, organism-based; conditions: in vivo
[18] = Microsomal stability in rat liver microsomes assessed as half life at 1 uM measured upto 120 mins in presence of NADPH by LC-MS analysis; assay type: ADME, Microsome
[19] = Half life in Sprague-Dawley rat at 15 mg/kg, po measured after 48 hrs by LC-MS analysis; assay type: ADME, organism-based; conditions: in vivo
[20] = Plasma protein binding in rat at 1 uM incubated for 5 hrs by LC-MS analysis; assay type: ADME, cell-free; conditions: read-out: PPB (converted)
Mus musculus [21] = assay: Toxicity in NOD-SCID mouse xenografted with human Raji cells assessed as change in uric acid level at 40 mg/kg, po administered for 25 days; assay type: organism-based; conditions: in vivo, 600 h, time 25 day
[22] = Cmax in Sprague-Dawley rat at 15 mg/kg, po measured after 48 hrs by LC-MS analysis; assay type: ADME, organism-based; set-up: dose 15 mg/kg, time 48 hrs, route po; conditions: in vivo
Mus musculus [23] = assay: Toxicity in NOD-SCID mouse xenografted with human Raji cells assessed as mortality at 40 mg/kg, po administered for 25 days; assay type: organism-based; conditions: in vivo, 600 h, time 25 day
SU-DHL-6 = assay: Antiproliferative activity against human SU-DHL-6 cells assessed as cell growth inhibition incubated for 96 hrs by MTT assay; assay type: functional, cell-based; conditions: SU-DHL-6, 96 h
[24] = Tmax in Sprague-Dawley rat at 15 mg/kg, po measured after 48 hrs by LC-MS analysis; assay type: ADME, organism-based; conditions: in vivo
in vitro [25] = conditions: human, Caco-2; remark: listed apart in the source
Description: Efflux ratio of apparent permeability across basolateral to apical side over apical to basolateral side in human Caco-2 cells

[26] = Microsomal stability in human liver microsomes assessed as half life at 1 uM measured upto 120 mins in presence of NADPH by LC-MS analysis; assay type: ADME, Microsome
Mus musculus [27] = assay: Toxicity in NOD-SCID mouse xenografted with human Raji cells assessed as change in ALT level at 40 mg/kg, po administered for 25 days; assay type: organism-based; conditions: in vivo, 600 h, time 25 day
Mus musculus [28] = assay: Toxicity in NOD-SCID mouse xenografted with human Raji cells assessed as change in AST level at 40 mg/kg, po administered for 25 days; assay type: organism-based; conditions: in vivo, 600 h, time 25 day
in vitro [29] = conditions: human, Caco-2; remark: listed apart in the source
Description: Apparent permeability across basolateral to apical side in human Caco-2 cells incubated for 90 mins by LC-MS analysis

[30] = AUC(0 to t) in Sprague-Dawley rat at 15 mg/kg, po measured after 48 hrs by LC-MS analysis; assay type: ADME, organism-based; set-up: dose 15 mg/kg, time 48 hrs, route po; conditions: in vivo
[31] = Acute toxicity in BALB/c mouse assessed change in behavior at 400 mg/kg, po; assay type: organism-based; conditions: in vivo
Mus musculus [32] = assay: Toxicity in NOD-SCID mouse xenografted with human Raji cells assessed as change in UREAL at 40 mg/kg, po administered for 25 days; assay type: organism-based; conditions: in vivo, 600 h, time 25 day
physchem = conditions: aqueous
Description: Aqueous solubility of compound by UPLC method

Raji [33] = assay: Antitumor activity against human Raji cells xenografted in NOD-SCID mouse assessed as tumor growth inhibition at 40 mg/kg, po administered for 25 days; assay type: functional; conditions: 600 h, time 25 day, read-out: TGI
in vitro [34] = conditions: human, L02 cells and Raji cells
Description: Selectivity index, ratio of IC50 for human L02 cells to IC50 for human Raji cells

[35] = Acute toxicity in BALB/c mouse assessed as effect on kidney at 400 mg/kg, po measured on day 14 by H and E staining based assay; assay type: organism-based; conditions: in vivo, 336 h, time 14 day
[36] = target: T1, Dihydroorotate dehydrogenase (quinone), mitochondrial
Description: Inhibition of human DHODH using dihydroorotate substrate preincubated for 30 mins followed by substrate addition by DCIP based microplate reader analysis

[37] = AUC(0 to t) in Sprague-Dawley rat at 5 mg/kg, iv measured after 48 hrs by LC-MS analysis; assay type: ADME, organism-based; set-up: time 48 hrs, dose 5 mg/kg, route iv; conditions: Sprague-Dawley, in vivo
Daudi = assay: Antiproliferative activity against human Daudi cells assessed as cell growth inhibition incubated for 96 hrs by MTT assay; assay type: functional, cell-based
HEL = assay: Antiproliferative activity against human HEL cells assessed as cell growth inhibition incubated for 96 hrs by MTT assay; assay type: functional, cell-based
[38] = Microsomal stability in mouse liver microsomes assessed as half life at 1 uM measured upto 120 mins in presence of NADPH by LC-MS analysis; assay type: ADME, Microsome
MV4-11 = assay: Antiproliferative activity against human MV4-11 cells assessed as cell growth inhibition incubated for 96 hrs by MTT assay; assay type: functional, cell-based; conditions: MV4-11, 96 h

## CCn1c(CO)nn(-c2cc(O[C@@H](C)C(F)(F)F)c(C(=O)Nc3c(F)cccc3Cl)cc2F)c1=O
Mus musculus [1]
  Activity: Toxic
Raji [2]
  inhibition in vivo at 1.5 mg/kg: 79%
L02
  IC50: 0.0011 µM
Raji [3]
  IC50: 0.0004 µM

## C/C(O)=C(\C#N)C(=O)Nc1cc(O[C@@H](C)C(F)(F)F)c(C(=O)Nc2c(F)cccc2Cl)cc1F
THP-1
  IC50: 0.02 µM
[4]
  Activity: Non-Toxic
SUD4
  IC50: 0.02 µM
[5]
  clearance: 0.3 L/h/kg
[6]
  fraction unbound at 5 h, 0.1 µM: 0.278
[7]
  CL/F: 0.7 L/h/kg
[8]
  half-life: 4.6 h
[9]
  Activity: Non-Toxic
[10]
  Activity: Non-Toxic
[11]
  Activity: Non-Toxic
[12]
  Activity: Non-Toxic
HL-60
  IC50: 0.02 µM
[13]
  fraction unbound at 5 h, 10 µM: 0.017
[14]
  Activity: Non-Toxic
In vitro [15]
  Papp A→B at 1.5 h: 2.9 nm/s
[16]
  inhibition: 93.6%
[17]
  bioavailability: 32.8%
[18]
  half-life at 1 µM: 0.77 h
[19]
  half-life: 8.7 h
[20]
  fraction unbound at 5 h, 1 µM: 0.057
Mus musculus [21]
  Activity: Non-Toxic
[22]
  Cmax: 1.32 µg/mL
Mus musculus [23]
  Activity: Non-Toxic
SU-DHL-6
  IC50: 0.02 µM
[24]
  Tmax: 12 h
In vitro [25]
  efflux ratio: 7
[26]
  half-life at 1 µM: 2.31 h
Mus musculus [27]
  Activity: Non-Toxic
Mus musculus [28]
  Activity: Non-Toxic
In vitro [29]
  Papp B→A at 1.5 h: 20.4 nm/s
[30]
  AUC(0-t) at 48 h: 21.1 µg·h/mL
[31]
  Activity: Non-Toxic
Mus musculus [32]
  Activity: Non-Toxic
physchem
  solubility: 5.2 mg/mL (≈ 10.3 mM)
Raji [33]
  inhibition in vivo at 40 mg/kg: 73.1%
L02
  IC50: 0.511 µM
In vitro [34]
  selectivity ratio: 37.2
[35]
  Activity: Non-Toxic
[36]
  IC50: 0.0069 µM
[37]
  AUC(0-t) at 48 h: 21.5 µg·h/mL
Daudi
  IC50: 0.02 µM
HEL
  IC50: 0.02 µM
[38]
  half-life at 1 µM: 2.46 h
MV4-11
  IC50: 0.02 µM
Raji [3]
  IC50: 0.0137 µM
